In US6472421B1, “Methods for treating, preventing, and reducing the risk of the onset of alzheimer's disease using an HMG CoA reductase inhibitor” (Nymox Corporation, priority 1998, dated 2002):

Key:
[1] = system: Alzheimer's disease (AD) in patients over the age of 60; experiment: Health care database study at three hospitals: frequency of AD by medication (ICD-9-CM codes); assay type: in vivo, human; settings: for Prevalence Of AD/1000 Hines / Prevalence Of AD/1000 Loyola / Prevalence Of AD/1000 Phoenix / Prevalence Of AD/1000 Combined: patients 60 years or over; for Prevalence Of AD/1000 Hines: Hines Veterans Authority Medical Center; for Prevalence Of AD/1000 Loyola: Loyola Medical Center; for Prevalence Of AD/1000 Phoenix: Phoenix Veterans Authority Medical Center; for Prevalence Of AD/1000 Combined: data from the three sites combined; for effect on prevalence / risk of AD (in words): patients over the age of 60, compared with total patient population
Text: To perform the study, relational databases at three different hospitals (Loyola Medical Center (“Loyola”), Hines Veterans Authority Medical Center (“Hines”), and Phoenix Veterans Authority Medical Center (“Phoenix”)) were searched to obtain aggregate data about the frequency of AD. Each database included clinical information that facilitated identification of potential relationships between specific items. […] Patient privacy was protected by using only aggregate patient data.
Each database was sorted to exclude any subjects under the age of 60 and any entries that contained patients' names but no medical information pertinent to the study. This yielded a total patient sample size for the three databases of 63,296 patients.
The frequency of AD for each medication was then determined using ICD-9-CM codes.
Alzheimer's disease was identified under the ICD-9-CM code of 331.0, but because other codes also apply to AD, the codes 331.2, 290.0, 290.10-13, 290.20 and 290.3 were also included as AD cases based on interviews with the physicians at each center who diagnosed or oversaw the diagnosis of patients with AD and on their coding practices for AD. The diagnosis of AD was made according to the criteria of the National Institute of Neurological and Communicative Disorders and Stroke (NINCDS) and the Alzheimer's Disease and Related Disorders Association (ADRDA) Work Group (McKhann et al., “Clinical Diagnosis of Alzheimer's Disease: Report of the NINCDS-ADRDA Work Group under the Auspices of Department of Health and Human Services Task Force on Alzheimer's Disease,” Neurology, 34:939-944 (1984).) Each AD patient had received either a CT scan or MRI to exclude other diagnoses, and had been screened for other metabolic, toxic, or affective disorders that may produce dementia.
Statistics were determined by comparisons of proportions using chi square analyses. All statistics listed P values and 95% confidence intervals.

[2] = system: Alzheimer's disease (AD); settings: comparison figures, no source given; cited from earlier work

## CC(C)NCC(O)COc1ccc(CC(N)=O)cc1 (stereo not shown) [Atenolol, atenolol]
[1]
  Prevalence Of AD/1000 Hines: 7.1 /1000
  Prevalence Of AD/1000 Loyola: 19.2 /1000
  Prevalence Of AD/1000 Phoenix: 19.0 /1000
  Prevalence Of AD/1000 Combined: 14.8 /1000
  effect on prevalence / risk of AD (in words): higher than that of the total patient cohort

## C[C@H](CS)C(=O)N1CCC[C@H]1C(=O)O [Captopril, captopril]
[1]
  Prevalence Of AD/1000 Hines: 8.4 /1000
  Prevalence Of AD/1000 Loyola: 13.6 /1000
  Prevalence Of AD/1000 Phoenix: 10.6 /1000
  Prevalence Of AD/1000 Combined: 10.6 /1000
  effect on prevalence / risk of AD (in words): did not show any significant reduction

## NS(=O)(=O)c1cc(C(=O)O)c(NCc2ccco2)cc1Cl [Furosemide, furosemide]
[1]
  Prevalence Of AD/1000 Hines: 9.0 /1000
  Prevalence Of AD/1000 Loyola: 16.7 /1000
  Prevalence Of AD/1000 Phoenix: 14.1 /1000
  Prevalence Of AD/1000 Combined: 8.9 /1000
  effect on prevalence / risk of AD (in words): did not show any significant reduction

## COCCc1ccc(OCC(O)CNC(C)C)cc1 (stereo not shown) [Metoprolol, metoprolol]
[1]
  Prevalence Of AD/1000 Hines: 4.4 /1000
  Prevalence Of AD/1000 Loyola: 15.3 /1000
  Prevalence Of AD/1000 Phoenix: 12.4 /1000
  Prevalence Of AD/1000 Combined: 12.1 /1000
  effect on prevalence / risk of AD (in words): higher than that of the total patient cohort

## CC[C@H](C)C(=O)O[C@H]1C[C@H](O)C=C2C=C[C@H](C)[C@H](CC[C@@H](O)C[C@@H](O)CC(=O)O)[C@H]21 [Pravastatin, 1-naphthalene-hepatnoic acid, 1,2,6,7,8,8a-hexahydro-β,δ,6-trihydroxy-2-methyl-8-(2-methyl-1-oxobutoxy)]
[1]
  Prevalence Of AD/1000 Hines: 1.1 /1000
  Prevalence Of AD/1000 Loyola: 0 /1000
  Prevalence Of AD/1000 Phoenix: 8.3 /1000
  Prevalence Of AD/1000 Combined: 4.3 /1000

## CC(C)NCC(O)COc1cccc2ccccc12 (stereo not shown) [Propanolol, propanolol]
[1]
  Prevalence Of AD/1000 Hines: 3.9 /1000
  Prevalence Of AD/1000 Loyola: 42.4 /1000
  Prevalence Of AD/1000 Phoenix: 20.7 /1000
  Prevalence Of AD/1000 Combined: 17.5 /1000
  effect on prevalence / risk of AD (in words): higher than that of the total patient cohort

## CCC(C)(C)C(=O)O[C@H]1C[C@@H](C)C=C2C=C[C@H](C)[C@H](CC[C@@H]3C[C@@H](O)CC(=O)O3)[C@H]21 [Simvastatin, simvastatin]
[1]
  Prevalence Of AD/1000 Loyola: 8.1 /1000
  Prevalence Of AD/1000 Phoenix: 11.2 /1000
  Prevalence Of AD/1000 Combined: 11.2 /1000

## Cc1c(C)c2c(c(C)c1O)CC[C@@](C)(CCC[C@H](C)CCC[C@H](C)CCCC(C)C)O2 [alpha-tocopherol]
[2]
  degree of reduction (of AD risk), other putative AD therapeutics: 52%

## estrogen
[2]
  degree of reduction (of AD risk), other putative AD therapeutics: 25-31%
